How the values were obtained:
[1] = Fecal recovery of orally administered compounds; type: in vivo, Sprague-Dawley rats; conditions: rats, oral gavage, nominal 10 mg/kg (actual 7.6-11 mg/kg), feces 0-48 hr after dosing
Experimental: Quantitative determination of test compound level in feces after oral gavage was performed using the same set of animals used to determine test compound concentration in plasma (Example 30). The animals were kept in metabolic cages and feces were collected from the time of dosing until 48 hr after dosing. Upon collection, feces was dried by lyophilization and ground to a visually homogenous powder. Duplicate samples of ground feces from each individual animal were weighed out and extracted using organic solvent. Extracted samples were then diluted into mobile phase and test compound levels were quantitatively determined by LC-MS/MS analysis as described in “Example 30” except that the standard curve was prepared in a feces matrix. Extraction conditions were not optimized for individual compounds, and thus may represent a minimal level of recovery.

[2] = Stability in simulated gastric and intestinal fluid; type: in vitro ADME; conditions: 6 hr, 1-20 μM
Experimental: Test compounds were incubated at 1-20 μM in simulated gastric fluid (SGF; standard USP solution with 3 mg/mL pepsin) or simulated intestinal fluid (SIF; standard USP solution with 3 mg/mL pancreatin) for 3 hr or 6 hr. HPLC-UV or HPLC-MS were used to determine test compound levels using peak area %. Results (Table 5) were reported as the percentage of test compound remaining after incubation in a given condition relative to test compound present at t=0 in the same condition.

human NaP2b (SLC34A2) = biological target: T1, human NaP2b (SLC34A2) (Homo sapiens, UniProt O95436); experiment: NaP2b-mediated Pi transport: 33P phosphate uptake into transfected HEK293 cells; type: cell-based; conditions: human protein with threonine inserted after residue 37 and N39D, 100 uM KH2PO4, read-out: pIC50 range for human Nap2b (converted)
T1 construct: host or cells: HEK293
T1 sequence (O95436 1-690): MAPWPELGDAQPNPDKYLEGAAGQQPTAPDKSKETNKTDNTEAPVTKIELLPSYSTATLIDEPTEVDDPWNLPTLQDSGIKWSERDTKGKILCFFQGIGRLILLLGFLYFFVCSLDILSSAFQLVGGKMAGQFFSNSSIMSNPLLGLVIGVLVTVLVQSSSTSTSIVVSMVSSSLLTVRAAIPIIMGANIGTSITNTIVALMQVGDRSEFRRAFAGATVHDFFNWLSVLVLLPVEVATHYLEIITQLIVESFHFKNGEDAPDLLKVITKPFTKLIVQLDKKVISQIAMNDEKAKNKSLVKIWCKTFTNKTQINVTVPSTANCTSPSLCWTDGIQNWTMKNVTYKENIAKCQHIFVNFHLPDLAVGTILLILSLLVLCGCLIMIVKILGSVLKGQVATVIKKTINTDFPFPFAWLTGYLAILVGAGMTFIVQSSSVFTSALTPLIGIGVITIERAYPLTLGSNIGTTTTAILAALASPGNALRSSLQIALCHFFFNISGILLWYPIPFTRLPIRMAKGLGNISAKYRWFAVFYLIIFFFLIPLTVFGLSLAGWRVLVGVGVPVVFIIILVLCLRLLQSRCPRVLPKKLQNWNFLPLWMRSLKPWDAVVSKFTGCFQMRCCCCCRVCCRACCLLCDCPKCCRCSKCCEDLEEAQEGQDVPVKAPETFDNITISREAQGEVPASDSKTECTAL
Experimental: (§1) Materials. HEK293 cells were obtained from the American Type Culture collection and propagated per their instructions. Expression clones for rat and human NaP2b (SLC34A2) were obtained from Open Biosystems (Catalog numbers MRN1768-9510282, and MHS1010-99823026, respectively). The sequence of the human protein was mutated to insert a threonine after residue 37, and to introduce a N39D mutation.
(§2) Inhibition of Pi Transport. The rate of phosphate (Pi) uptake into HEK293 cells was measured using a modification of the method described by Mohrmann et al. (Mohrmann, I., Mohrmann, M., Biber, J., and Murer, H. (1986) Am. J. Phys. 250(3 Pt 1):G323-30.) Transfected HEK293 cells were treated with a pharmacological agent to minimize endogenous PiT-mediated phosphate transport activity, such that the only remaining sodium-dependent phosphate transport activity is that which was bestowed by introduction of the NaP2b genes.
(§3) Cells were seeded into 96-well plates at 25,000 cells/well and cultured overnight. Lipofectamine 2000 (Invitrogen) was used to introduce the NaP2b cDNA, and the cells were allowed to approach confluence during a second overnight incubation. […] Cells were then overlayed with either choline uptake buffer or sodium uptake buffer (14 mM Tris, 137 mM sodium chloride, 5.4 mM KCl, 2.8 mM CaCl2, 1.2 mM MgSO4, 100 uM KH2PO4, PiT-silencing agent, 1 mg/mL Bovine Serum Albumin, pH 7.4) containing 6-9 uCi/mL ^33P orthophosphoric acid (Perkin Elmer) and test compound. Each compound was tested at twelve concentrations ranging from 0.1 nM to 30 uM. Assays were run in duplicate.
(§4) After incubation for 3-30 minutes at room temperature, assay mixtures were removed, and the cells were washed twice with ice cold stop solution (137 mM sodium chloride, 14 mM Tris, pH 7.4). Cells were lysed by addition of 20 μL 0.1% Tween 80 followed by 100 μL scintillation fluid, and counted using a TopCount (Perkin Elmer).
(§5) pIC50 (the negative log of the IC50) values of the test compounds were calculated using GraphPad Prism.

rat NaP2b (SLC34A2) = biological target: T2, rat NaP2b (SLC34A2) (Rattus norvegicus, UniProt Q9JJ09); experiment: as above; type: cell-based; conditions: 100 uM KH2PO4, PiT-silencing agent, read-out: pIC50 range for rat Nap2b (converted)
T2 construct: host or cells: HEK293
T2 sequence (Q9JJ09 1-695): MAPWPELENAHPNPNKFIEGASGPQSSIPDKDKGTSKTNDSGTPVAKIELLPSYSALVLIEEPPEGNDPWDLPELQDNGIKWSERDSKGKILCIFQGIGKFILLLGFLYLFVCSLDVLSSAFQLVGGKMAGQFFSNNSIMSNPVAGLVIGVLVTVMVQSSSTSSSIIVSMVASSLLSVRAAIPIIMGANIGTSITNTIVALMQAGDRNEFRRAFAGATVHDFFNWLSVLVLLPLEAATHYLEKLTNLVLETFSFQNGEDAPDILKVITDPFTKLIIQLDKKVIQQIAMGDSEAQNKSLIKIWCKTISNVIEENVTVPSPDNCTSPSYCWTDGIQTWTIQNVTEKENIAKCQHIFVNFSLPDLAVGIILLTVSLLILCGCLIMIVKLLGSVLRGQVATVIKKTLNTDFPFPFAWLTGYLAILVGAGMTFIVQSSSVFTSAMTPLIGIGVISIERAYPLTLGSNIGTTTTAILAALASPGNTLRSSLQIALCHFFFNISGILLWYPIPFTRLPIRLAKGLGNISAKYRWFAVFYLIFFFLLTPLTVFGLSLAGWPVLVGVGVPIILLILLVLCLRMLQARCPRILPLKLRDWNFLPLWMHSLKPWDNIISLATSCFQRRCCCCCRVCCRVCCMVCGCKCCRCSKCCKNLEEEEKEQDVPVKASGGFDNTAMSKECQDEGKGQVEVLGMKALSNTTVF
Experimental: as §1, §2, §3, §4, §5

[3] = tested on: Uptake of Phosphorus from the Intestine; experiment: In vivo co-dosing in chow, urinary P output relative to P consumed; set-up: species or system Sprague-Dawley rats; conditions: rats, compound in chow, nominal 100 mg/kg/day (mean actual 104-105 mg/kg/day), mean of 24-96 h, vs control
Text: Male, 7-week-old Sprague-Dawley rats (Charles-River laboratories international, Hollister, Calif.) were allowed to acclimate for a minimum of 3 days. The experiment was initiated by switching animals to a synthetic diet (0.6% phosphorus and 0.6% calcium, Harlan Teklad TD.84122) for four days. After this time, the animals were placed into metabolic cages for daily monitoring of food and water consumption, as well as urine and fecal collections. Test compounds were incorporated into the powdered diet listed above containing 3% chocolate flavoring (w/w, BioSery #7345) at 1.3 mg test compound per gram of diet to achieve an average daily nominal dose of 100 mg/kg/day. The actual dose received by each animal was later determined by measuring prepared diet consumption and body weight. Urine samples were collected in three daily periods from 24-48, 48-72, and 72-96 hours of drug dosing. […] Phosphorous levels in the urine were determined by anion exchange chromatography using a Dionex ICS-3000 ion chromatography system. […] Elution of urine phosphate ions was monitored via conductivity detector and reported as ppm relative to a standard ion solution containing phosphate. Daily urinary P output relative to the P consumed in the prepared diet for each animal was calculated. […] The differences between the means of control and treated groups were evaluated by t tests. […]

% recovered in feces [1]: 17%
% remaining, SGF ([2]; simulated gastric fluid with 3 mg/mL pepsin): 100%
% remaining, SIF ([2]; simulated intestinal fluid with 3 mg/mL pancreatin): 97%
IC50 (human NaP2b (SLC34A2)): < 1 µM
IC50 (rat NaP2b (SLC34A2)): 1 to 7.94 µM
Compound: CN(CCOCCOCCOCCC(=O)O)C(=O)c1cccc(C(=O)Nc2ccc(N3CCCCC3)cc2C(=O)Nc2ccn(-c3cccc(C(F)(F)F)c3)n2)c1 [Example 15, 2-Methyl-1-oxo-1-(3-((4-(piperidin-1-yl)-2-((1-(3-(trifluoromethyl)phenyl)-1H-pyrazol-3-yl)carbamoyl)phenyl)carbamoyl)phenyl)-5,8,11-trioxa-2-azatetradecan-14-oic acid]
Mean % inhibition Urine Pout/P consumed [3]: 9%

Source: patent US9289430B2, “Compounds and methods for inhibiting phosphate transport” (Ardelyx, Inc., priority 2010, dated 2016)
